The source of these data is BindingDB's records for doi:10.3109/14756366.2010.482047 (Academy of Sciences of The Czech Republic, 2011).

The assay deals with T1, Cytosol aminopeptidase [33-68,L62W] (Sus scrofa, UniProt P28839, L62W).
T1 construct: 33-68
T1 sequence (P28839 33-68 L62W): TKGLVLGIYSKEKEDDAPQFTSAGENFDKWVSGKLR
The assay can be described thus: Kinetic Inhibition Assay. The conditions noted are these: pH 8.4; 25 °C. The procedure: LAP was assayed in 75 mM triethanolamine hydrochloride buffer (pH = 8.4, containing 5 mM MgCl2) at 25°C. The substrate (L-leucine-p-nitroanilide) was dissolved in DMSO and added to the assay buffer followed by the enzyme. The hydrolysis of the substrate was monitored by the change in absorbance measured at 405 nm. All the inhibitor solutions were prepared in the assay buffer. The assay solution, which contained 0.05 mL of the substrate solution (0.2, 0.4, 0.6, 0.8, 1 mM final concentrations), 0.25 mL of an inhibitor solution (concentration dependent on the inhibitor), the enzyme solution (20 μg/ml final concentration) and adjusted to a 1 mL final volume.
With `CCCC[C@H](N)P(=O)(O)O` [1-aminopentylphosphonic acid], the inhibition constant Ki was 58 µM.
`CSCC[C@H](N)P(=O)(O)O` [Met-P (1)]: the Ki was found to be 22.6 µM.
Then `CSCC[C@H](N)[P@H](=O)O` [Met-PH (2)], with 22 µM.
Molecule `CSCCC(N)P(=O)(O)CC(C)C(=O)O` (configuration not stated) [Met-ψ[P(O)(OH)CH2]-Ala (5)] registered a Ki of 3.64 µM.
In the case of `CCCCC(N)[PH](=O)O` (configuration not stated) [Nle-PH (4)], the affinity corresponds to a Ki of 73.9 µM.
`CCCCC(N)P(=O)(O)O[C@@H](C)C(=O)O` (stereo partly drawn) [Nle-ψ[P(O)(OH)O]-L-Ala (6)] yielded a Ki of 269 µM.
In the case of `CCCCC(N)P(=O)(O)O[C@@H](C)C(=O)OC` (stereo partly drawn) [Nle-ψ[P(O)(OH)O]-L-AlaOMe (7)], the inhibition constant (Ki) worked out at 219 µM.

What is called Ki is a dissociation constant, usually derived from enzyme kinetics or from competition with a known ligand.
